Assay results reported in PubChem BioAssay AID1963852 (Molecular Pharmacology Branch, DTP, NCI, 2024).

Test system: 282377-053-R-J1-PDC complex spheroid viability
Assay: Anticancer human tumor 282377-053-R-J1-PDC patient-derived colon adenocarcinoma cell line growth inhibition [POLQ]
Conditions: for IC50: curve of first compound; for viability, T/C: stronger effect = lower value; active means viability on the fitted dose curve at most 10% of control; inactive means the rest
Description: Multicellular complex tumor spheroid response to Polymerase (POL) inhibitors (novobiocin, ART-558, RP6685) in combination with a variety of drugs and investigational agents in selected tumor cell lines
The POL inhibitors (novobiocin, ART-558, and RP6685) were evaluated both individually and in combination with standard of care and investigational anticancer small molecules within a complex spheroid model of solid tumors. . Complex spheroids include a stromal component modeled by human endothelial cells (HUVEC) and fibroblasts modeled by human mesenchymal stem cells (MSCs). The concentration ranges selected for each drug and investigational agent were based upon clinically achievable concentrations if the clinical Cmax of the agent was known.
Compounds. The drugs and investigational agents: novobiocin (NSC847541), ART-558 (NSC835418), RP-6685 (NSC848927), peposertib (NSC802822), ceralasertib (NSC780249), elimusertib (NSC800525), camonsertib (NSC841442), AZD-1390 (NSC803789), olaparib (NSC753686), talazoparib (NSC767125), rucaparib (NSC756644), sotorasib (NSC818433), MRTX-1133 (NSC836407), SN-38 (NSC673596), topotecan (NSC609699), epotoside (NSC141540), doxorubicin (NSC123127), gemcitabine (NSC613327), 5-fluorouracil (NSC19893), paclitaxel (NSC125973), vemurafenib (NSC761431), MSA-2 (NSC828583), SN-011 (NSC837082), adavosertib (NSC754352), prexasertib (NSC758257), carboplatin (NSC241240) and oxaliplatin (NSC266046), were obtained from the National Cancer Institute (NCI) Developmental Therapeutics Program Chemical Repository (21). The FDA-approved anticancer drug set is available from the Developmental Therapeutics Program at https://dtp.cancer.gov/organization/dscb/obtaining/. […] The stock solutions were prepared in dimethyl sulfoxide (DMSO, Sigma-Aldrich, St. Louis, MO, cat. D2650), except for the platinum compounds which were prepared in saline (Quality Biological, Gaithersburg, MD, cat. 114-055-101), at 800-fold the tested concentration and stored at -70 degrees C prior to their use. All drugs and investigational agents were tested over a range starting from a high concentration at or near the clinical Cmax and decreasing in half-log increments. If the clinical Cmax for an agent had not been determined, the highest concentration tested was 10 microM, except for SN-38, which was tested at a high concentration of 1 microM.
Cell Culture. All cells were maintained in an incubator at 37 degrees C and 5% CO2 with 95% humidity. The PDC lines were cultured according to standard operating procedures established by the NCI PDMR (https://pdmr.cancer.gov). Table 3 of the manuscript, lists the cell lines along with the number of the three cell types plated to form the mct-spheroids and media for tumor cell growth. After thawing, all PDC lines, except 997537-175-T-J1-PDC and 415267-285-R-J2-PDC, were cultured in Matrigel-coated flasks prepared with a working solution of 1X Ham's F-12 nutrient mix, without supplementation (Thermo Fisher Scientific, cat. 11765054), 100 U/mL penicillin-streptomycin (Thermo Fisher Scientific, cat. 15140122), and 2.5% Matrigel (Corning Inc., Corning, NY, cat. 354248) for the first three passages. The two PDC lines 997537-175-T-J1-PDC and 415267-285-R-J2-PDC were cultured on uncoated flasks. The 857933-349-R-J2-PDC line was cultured in 6C/Colon 1B media containing advanced DMEM/F-12 (Thermo Fisher Scientific, cat. 12634028), 10 mM HEPES (Thermo Fisher Scientific, cat. 15630080), 1X GlutaMAX supplement (Thermo Fisher Scientific, cat. 35050061), 0.1 mg/mL primocin (InvivoGen, San Diego, CA, cat. ant-pm-2), 10% defined fetal bovine serum, heat inactivated (HyClone Laboratories Inc., Logan, UT, cat. SH30070.03HI), 50% L-WRN conditioned media (ATCC, cat. CRL-3276), 1.25 mM N-Acetyl-L-cysteine (Sigma-Aldrich, cat. A9165), 10 mM nicotinamide (Sigma-Aldrich, cat. N0636), 1X B-27 supplement (Thermo Fisher Scientific, cat. 17504044), 1X N-2 supplement (Thermo Fisher Scientific, cat. […]

[1] = second compound 0.0316 µM, first compound 0.0316 µM
[2] = second compound 0.0316 µM, first compound 0.1 µM
[3] = second compound 0.0316 µM, first compound 0.316 µM
[4] = second compound 0.0316 µM, first compound 1 µM
[5] = second compound 0.1 µM, first compound 0.0316 µM
[6] = second compound 0.1 µM, first compound 0.1 µM
[7] = second compound 0.1 µM, first compound 0.316 µM
[8] = second compound 0.1 µM, first compound 1 µM
[9] = second compound 0.316 µM, first compound 0.0316 µM
[10] = second compound 0.316 µM, first compound 0.1 µM
[11] = second compound 0.316 µM, first compound 0.316 µM
[12] = second compound 0.316 µM, first compound 1 µM
[13] = second compound 1 µM, first compound 0.0316 µM
[14] = second compound 1 µM, first compound 0.1 µM
[15] = second compound 1 µM, first compound 0.316 µM
[16] = second compound 1 µM, first compound 1 µM
[17] = second compound 3.16 µM, first compound 0.0316 µM
[18] = second compound 3.16 µM, first compound 0.1 µM
[19] = second compound 3.16 µM, first compound 0.316 µM
[20] = second compound 3.16 µM, first compound 1 µM
[21] = second compound 10 µM, first compound 0.0316 µM
[22] = second compound 10 µM, first compound 0.1 µM
[23] = second compound 10 µM, first compound 0.316 µM
[24] = second compound 10 µM, first compound 1 µM
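Further: spheroids exposed to compounds for seven days.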

C#Cc1c(F)ccc2cc(O)cc(-c3ncc4c(N5CC6CCC(C5)N6)nc(OCC56CCCN5CC(F)C6)nc4c3F)c12 (centres undefined) + COC1C(OC(N)=O)C(O)C(Oc2ccc3c(O)c(NC(=O)c4ccc(O)c(CC=C(C)C)c4)c(=O)oc3c2C)OC1(C)C
> 10000 nM: IC50 (second compound 0.0316 µM) | IC50 (second compound 0.1 µM) | IC50 (second compound 0.316 µM) | IC50 (second compound 1 µM) | IC50 (second compound 3.16 µM) | IC50 (second compound 10 µM)
inactive: viability, T/C [1] 111% | viability, T/C [2] 115% | viability, T/C [3] 108% | viability, T/C [4] 117% | viability, T/C (second compound 0.0316 µM, first compound 3.16 µM) 88.8% | viability, T/C (second compound 0.0316 µM, first compound 10 µM) 96.9% | viability, T/C [5] 94.4% | viability, T/C [6] 113% | viability, T/C [7] 107% | viability, T/C [8] 90% | viability, T/C (second compound 0.1 µM, first compound 3.16 µM) 96.9% | viability, T/C (second compound 0.1 µM, first compound 10 µM) 88.1% | viability, T/C [9] 94% | viability, T/C [10] 120% | viability, T/C [11] 93.7% | viability, T/C [12] 91.5% | viability, T/C (second compound 0.316 µM, first compound 3.16 µM) 92.6% | viability, T/C (second compound 0.316 µM, first compound 10 µM) 85.6% | viability, T/C [13] 104% | viability, T/C [14] 96.5% | viability, T/C [15] 98.9% | viability, T/C [16] 82.5% | viability, T/C (second compound 1 µM, first compound 3.16 µM) 112% | viability, T/C (second compound 1 µM, first compound 10 µM) 87.8% | viability, T/C [17] 104% | viability, T/C [18] 88.3% | viability, T/C [19] 95.4% | viability, T/C [20] 82.3% | viability, T/C (second compound 3.16 µM, first compound 3.16 µM) 92.1% | viability, T/C (second compound 3.16 µM, first compound 10 µM) 87.7% | viability, T/C [21] 100% | viability, T/C [22] 91.2% | viability, T/C [23] 102% | viability, T/C [24] 93.7% | viability, T/C (second compound 10 µM, first compound 3.16 µM) 74.8% | viability, T/C (second compound 10 µM, first compound 10 µM) 86.8%

CCc1c2c(nc3ccc(O)cc13)-c1cc3c(c(=O)n1C2)COC(=O)[C@]3(O)CC + COC1C(OC(N)=O)C(O)C(Oc2ccc3c(O)c(NC(=O)c4ccc(O)c(CC=C(C)C)c4)c(=O)oc3c2C)OC1(C)C
41.2 nM: IC50 (second compound 3.16 µM)
115 nM: IC50 (second compound 0.1 µM)
92.1 nM: IC50 (second compound 0.0316 µM)
inactive: viability, T/C (second compound 0.0316 µM, first compound 0.00316 µM) 111% | viability, T/C (second compound 0.0316 µM, first compound 0.01 µM) 71.8% | viability, T/C [1] 59.8% | viability, T/C [2] 54% | viability, T/C [3] 30.7% | viability, T/C [4] 19.4% | viability, T/C (second compound 0.1 µM, first compound 0.00316 µM) 108% | viability, T/C (second compound 0.1 µM, first compound 0.01 µM) 90.1% | viability, T/C [5] 64.6% | viability, T/C [6] 51.8% | viability, T/C [7] 37.6% | viability, T/C [8] 19.2% | viability, T/C (second compound 0.316 µM, first compound 0.00316 µM) 124% | viability, T/C (second compound 0.316 µM, first compound 0.01 µM) 81.2% | viability, T/C [9] 60.7% | viability, T/C [10] 51% | viability, T/C [11] 37.7% | viability, T/C [12] 18.6% | viability, T/C (second compound 1 µM, first compound 0.00316 µM) 116% | viability, T/C (second compound 1 µM, first compound 0.01 µM) 93.8% | viability, T/C [13] 49.3% | viability, T/C [14] 59.1% | viability, T/C [15] 30.9% | viability, T/C [16] 21.6% | viability, T/C (second compound 3.16 µM, first compound 0.00316 µM) 115% | viability, T/C (second compound 3.16 µM, first compound 0.01 µM) 75.6% | viability, T/C [17] 46.3% | viability, T/C [18] 47.8% | viability, T/C [19] 38.6% | viability, T/C [20] 25% | viability, T/C (second compound 10 µM, first compound 0.00316 µM) 102% | viability, T/C (second compound 10 µM, first compound 0.01 µM) 72.6% | viability, T/C [21] 56% | viability, T/C [22] 39.2% | viability, T/C [23] 41.9% | viability, T/C [24] 16.6%
78.9 nM: IC50 (second compound 1 µM)
114 nM: IC50 (second compound 0.316 µM)
52.1 nM: IC50 (second compound 10 µM)
